Results on two molecules are retold here after patent US20240131178A1, “ANTIBODY-DRUG CONJUGATE INCLUDING ANTIBODY AGAINST HUMAN CLDN18.2, AND USE THEREOF” (LEGOCHEM BIOSCIENCES, INC., priority 2021, published 2024).

Format in all cases: cell-based
Common to all, as to details: 144 hours, SRB dye

For test [1], the system named is pancreatic cancer cell line PATU-8988s. Description: In vitro cytotoxicity (cell proliferation inhibition), PATU-8988s. Here is the method: (§1) The cell proliferation inhibitory activity of drugs shown in Table 4 and the ADCs was measured. Gastric cancer cell lines NUGC-4, SNU-601, and SNU-602, and a pancreatic cancer cell line PATU-8988s, which are commercially available as cancer cell lines, were used, and normal cell lines HaCaT, Fa2N-4, HK-2, and HS738.st/Int were used. As for test groups treated with each cancer cell line for 144 hours, cells were seeded into a 96-well plate at the rate of 2,500 cells/well to 10,000 cells/well and cultured for 24 hours, and then each cancer cell line was treated with each drug and each ADC at a concentration of 0.256 pM to 100 nM (5-fold serial diltuion), and each normal cell line was treated with each drug and each ADC at a concentration of 2.56 pM to 1,000 nM (5-fold serial dilution). The number of cells survived after 144 hours was quantified using a sulforhodamine B (SRB) dye, and the cell line Hs738.st/Int was quantified using Cell titer glo.

The subject of another test is normal cell line HaCaT. Description: In vitro cytotoxicity, normal cell line HaCaT. The protocol: as §1
Test [2] deals with gastric cancer cell line NUGC-4. Description: In vitro cytotoxicity (cell proliferation inhibition), NUGC-4. Here is the method:
as §1

The subject of test [3] is gastric cancer cell line SNU-620. Description: In vitro cytotoxicity (cell proliferation inhibition), SNU-620.
In test [4] the test system is gastric cancer cell line SNU-601. Description: In vitro cytotoxicity (cell proliferation inhibition), SNU-601. The protocol:
as §1

For the next test, the system named is normal cell line HK-2. Description: In vitro cytotoxicity, normal cell line HK-2. Here is the method: as §1
A further test relates to normal cell line Fa2N-4. Description: In vitro cytotoxicity, normal cell line Fa2N-4. The protocol: as §1

Square brackets hold non-standard residues; d marks the D form. Peptide text beside a SMILES is read from it. * marks the point of attachment. Dolaproine = CO[C@@H]([C@@H]1CCCN1)[C@@H](C)C(=O)O; Dil = CC[C@H](C)[C@H](NC)[C@@H](CC(=O)O)OC; X1 = C[C@@H](N*)[C@@H](O)c1ccccc1; NMeV = CN[C@H](C(=O)O)C(C)C

As for `CC[C@H](C)[C@@H]([C@@H](CC(=O)N1CCC[C@H]1[C@H](OC)[C@@H](C)C(=O)N[C@H](C)[C@@H](O)c1ccccc1)OC)N(C)C(=O)[C@@H](NC(=O)[C@@H](NC)C(C)C)C(C)C` [MMAE, monomethyl auristatin E] (H-[NMeV]V[Dil][Dolaproine]-X1), the IC50 in test [1] amounted to 0.145 nM; with normal cell line HaCaT it was 0.14 nM; in test [2], 0.29 nM; in test [3], 0.71 nM; in test [4] it was 0.51 nM; with normal cell line HK-2 it was 21.9 nM. The concentration for half-maximal inhibition (IC50) in the test with normal cell line Fa2N-4 was 3 nM.
With `C=C1C[C@H]2C=Nc3cc(OCCCCCOc4cc5c(cc4OC)C(=O)N4CC(=C)C[C@H]4C=N5)c(OC)cc3C(=O)N2C1` [SG2057], the IC50 in test [2] turned out to be 0.03 nM; in test [3], 0.097 nM; in test [4], 0.003 nM.
